Key:
AsPC-1 cells = test: Surface PS (annexin V-APC) and TUNEL apoptosis stain, AsPC-1 (FIG. 3A); assay type: cell-based, human; conditions: for TUNEL positive: 24 h (CTL=0.3)
Description: (§1) FIG. 3. GEM exposure triggers PS externalization in pancreatic tumor cells. AsPC-1 (A) and Mia-PaCa-2 (B) cells were treated with varying doses of GEM for 24 h, TUNEL apoptosis stain was performed after surface PS staining with annexin V-APC. The overlay histograms show TUNEL-negative (non-apoptotic) cells. TUNEL positive [AsPC-1: CTL=0.3; GEM 10 nM=2.5; GEM 100 nM=4.6]; [MIA-PaCa-2: CTL=3.6; GEM 1 μM=21].
(§2) Importantly, in low surface PS cells a clear increase was evident using sub-toxic concentrations of GEM that caused <10% apoptosis.
(§3) Various cell types were analyzed for surface PS exposure by flow cytometry with annexin V-FTIC. Involvement of flippases in the regulation of surface PS exposure was analyzed by flippase activity assay. Total cellular PS was quantified by TLC separation of phospholipids and estimation of PS phosphorous. Orthotopic PDAC tumors were established by injecting human or murine PDAC cells into animal pancreas. In vivo bioluminescence and fluorescence imaging were performed to monitor tumor targeting and growth. The molecular mechanisms underlying the induction of apoptosis by SapC-DOPS were evaluated in cultured PDAC cells through measurements of cell viability, TUNEL, and flow cytometric DNA fragmentation.

MIA-PaCa-2 cells = test: Surface PS (annexin V-APC) and TUNEL apoptosis stain, MIA-PaCa-2 (FIG. 3B); assay type: cell-based, human
Description: as §1, §2, §3

[1] = tested on: MIA PaCa-2 human pancreas tumor xenograft; test: MIA PaCa-2 human pancreas tumor xenograft model (Example 3); assay type: in vivo; conditions: for Day 35 TW (mg) ± SEM: Day 35 mean tumor weight, Q3Dx4
Description: SapC-DOPS was received from Bexion Pharmaceuticals, Inc. and were stored at […] until use. Separate aliquoted vials of SapC-DOPS for the 7.3 mg/kg dose were received. Separate aliquoted vials of vehicle were received, which contained DOPS and no SapC. Each vial was resuspended in 1.2 ml of sterile water for injection (Lot #JPJ551, 13/Braun Medical, Inc., Irvine Calif.). Once formulated, SapC-DOPS was delivered at a 10 ml/kg dose volume. SapC-DOPS and vehicle were formulated fresh daily and administered immediately after preparation.
Gemcitabine (Lot #A735891A) was manufactured by Eli Lilly and Co. (Indianapolis, Ind.) and diluted in a 0.9% NaCl solution (B. Braun Medical, Inc., Irvine, Calif., Lot #J0K465) to a concentration of 4 mg/ml to deliver a 40 mg/kg dose at a 10 ml/kg dose volume. All preparations were made fresh prior to their administration.
The MIA Paca-2 human pancreas tumor cell line was received from American Type Culture Collection (ATCC, Manassas, Va.). Cultures were maintained in RPMI-1640 (Hyclone, Logan, Utah) supplemented with 5% fetal bovine serum, and housed in a 5% CO2 atmosphere. The cultures were expanded in tissue culture flasks at a 1:4 split ratio until a sufficient amount of cells were harvested.
Female NCR nude mice (CrTac:NCR-Foxn1^nu) were supplied by Taconic (Germantown, N.Y.). Mice were received at four weeks' of age, 12-15 g in weight. All mice were acclimated for seven days prior to handling. The mice were housed in microisolator cages (Lab Products, Seaford, Del.) and maintained under specific pathogen-free conditions. The mice were fed PicoLab® irradiated mouse chow (Lab Diet, Richmond, Ind.) and autoclaved water was freely available. […]
Five days following inoculation, tumors were measured using calipers and tumor weight was calculated using the animal study management software, Study Director V. 1.7.54 k (Study Log)^1, Thirty mice with tumor sizes of 105-158 mg were pair-matched into three groups of ten mice each (Day 1). Body weights were recorded when the mice were pair-matched and were taken twice weekly thereafter in conjunction with tumor measurements. […]
On Day 35, tumors were collected from two randomly selected mice per group. […] The lungs were fixed in formalin (Lot #4117, Azer Scientific, Morgantown, Pa.) and sent to the Mayo Clinic Histology (Scottsdale, Ariz.) to be paraffin blocked process through H&E. The lungs were analyzed by a pathologist at Mayo Clinic with emphasis on evidence of granuloma on the lungs.
Mean tumor growth inhibition (TGI) was calculated utilizing the following formula (any tumors that regressed were not used in calculations): […]
The mean tumor shrinkage of each group was calculated and reported. […]

PDAC cells = test: Surface PS exposure by flow cytometry with annexin V; assay type: cell-based; conditions: chemotherapy treatment of PDAC cells
Description: as §3

Nc1ccn([C@@H]2O[C@H](CO)[C@@H](O)C2(F)F)c(=O)n1 [Gemcitabine]
external PS in viable cells (AsPC-1 cells; 24 h, varying doses, relatively low surface PS cell line): dose-dependent increase | TUNEL positive (AsPC-1 cells; GEM 10 nM): 2.5 | TUNEL positive (AsPC-1 cells; GEM 100 nM): 4.6 | apoptosis (AsPC-1 cells; sub-toxic concentrations of GEM giving a clear PS increase in low surface PS cells): < 10% | external PS in viable cells (MIA-PaCa-2 cells; 24 h, varying doses, moderate surface PS cell line): dose-dependent increase | TUNEL positive (MIA-PaCa-2 cells; GEM 1 μM, 24 h (CTL=3.6)): 21 | Total Deaths ([1]; 10 mice per group, study to Day 35): 0 | Day 35 TW (mg) ± SEM [1]: 936.0 ± 135.1 mg | Day 35 TW (mg) ± SEM ([1]; listed as gemcitabine): 936.0 mg | tolerability ([1]; mouse, in vivo): well tolerated | surface PS levels (PDAC cells): increase surface PS levels

From patent publication US20220088042A1, “COMBINATION THERAPY INCLUDING SAPC-DOPS FOR THE TREATMENT OF PANCREATIC CANCER” (priority 2016, published 2022)
